Counter-ions that a name gives are not always drawn. Like-named read-outs stand apart in the source and are kept apart here. Starred links: 1 amine or outer side, 2 acyl side, 3 side chain; linkers in the order of their positions; H or OH if unused. Positions of bridges follow the written chain, without caps; N, C: chain ends. Non-standard residues stand in square brackets, D forms with d. Residues, ends and D or L forms follow the SMILES beside them. ξ: configuration not given here. *: point of attachment. NMeF = CN[C@@H](Cc1ccccc1)C(=O)O; NMeI = CC[C@H](C)[C@H](NC)C(=O)O; NMeβAla = CN(CCC(=O)[*:2])[*:1]; NMeL = CN[C@@H](CC(C)C)C(=O)O; NMeV = CN[C@H](C(=O)O)C(C)C; NMeA = CN[C@@H](C)C(=O)O; Piperidide = C1CCN(*)CC1; dNMeA = CN[C@H](C)C(=O)O; ξD = NC(CC(=O)O)C(=O)O; ξT = CC(O)C(N)C(=O)O; Sar = CNCC(=O)O; tBu = CC(C)(C)*
Legend:
[1] = PAMPA (parallel artificial membrane permeability assay); assay type: in vitro ADME; details: PAMPA
In short: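 Artificial membrane was 10% (w/v) egg lecithin plus 0.5% (w/v) cholesterol in dodecane on a PVDF filter. A 10 mM DMSO stock was added at 0.5% (v/v) to donor buffer (50 mM MOPSO, pH 6.5, 5.0% glycocholic acid). After 18 h at 37 °C, LC/MS or LC/UV gave donor and acceptor levels for Pe.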

[2] = Metabolic stability in human hepatic microsome; assay type: in vitro ADME; details: for microsomal CLint at 1 uM: microsomes
[3] = membrane permeation rate (Pe), 50 mM MOPSO buffer pH 6.5 with 5.0% glycocholic acid, 37° C., 18 hours, read-out: iPAMPA Pe
[4] = pH 7.4, human hepatic microsome, NADPH(+), read-out: CL NADPH(+)

SMILES | Papp at 18 hours, 50 µM ([1]; pH 6.5) [×10⁻⁶ cm/s] | microsomal CLint at 1 uM ([2]; human, pH 7.4, CL NADPH(+)) [µL/min/mg] | Papp at 18 hours, 50 µM [1, 3] [×10⁻⁶ cm/s] | microsomal CLint at 1 uM [2, 4] [µL/min/mg] | CL NADPH(+) ([2]; human hepatic microsome, NADPH(+))
CC[C@H](C)[C@@H]1NC(=O)[C@H](C)NC(=O)C[C@@H](C(=O)N2CCCCC2)NC(=O)[C@H](CC(C)C)NC(=O)[C@H](CC(C)C)NC(=O)[C@H](C(C)C)NC(=O)[C@H](C)N(C)C(=O)[C@H](Cc2ccccc2)NC(=O)CNC(=O)[C@H]([C@@H](C)O)NC(=O)[C@H](CC(C)C)N(C)C(=O)[C@@H]2CCCN2C1=O [DP-5] (AIP[NMeL]TGF[NMeA]VLLD-Piperidide; lactam N-12) | 13 | 68 |  |  | 
CC[C@H](C)[C@H]1C(=O)N(C)[C@@H](C)C(=O)N[C@@H](Cc2ccccc2)C(=O)N[C@@H]([C@@H](C)O)C(=O)N[C@@H](Cc2ccccc2)C(=O)N(C)[C@@H](CC(C)C)C(=O)N2CCC[C@H]2C(=O)N[C@H](C(=O)N2CCCCC2)CC(=O)N[C@@H](C)C(=O)N[C@@H](CC(C)C)C(=O)N(C)CC(=O)N[C@@H](CC(C)C)C(=O)N1C [DP-7] (AL[Sar]L[NMeI][NMeA]FTF[NMeL]PD-Piperidide; lactam N-12) |  |  | 10 | 48 | 
CC[C@H](C)[C@@H]1NC(=O)[C@H](C)NC(=O)C[C@@H](C(=O)N2CCCCC2)NC(=O)[C@H](Cc2ccccc2)NC(=O)[C@H](C(C)C)N(C)C(=O)[C@H](CC(C)C)NC(=O)[C@H](C)N(C)C(=O)[C@H](Cc2ccccc2)N(C)C(=O)[C@H]([C@@H](C)O)NC(=O)CN(C)C(=O)[C@H](CC(C)C)N(C)C(=O)[C@@H]2CCCN2C1=O [DP-9] (AIP[NMeL][Sar]T[NMeF][NMeA]L[NMeV]FD-Piperidide; lactam N-12) |  |  | 13 | 18 | 
CC[C@H](C)[C@H]1C(=O)N(C)[C@@H](C)C(=O)N(C)[C@@H](Cc2ccccc2)C(=O)N[C@@H]([C@@H](C)O)C(=O)N(C)[C@@H](Cc2ccccc2)C(=O)N(C)[C@@H](CC(C)C)C(=O)N2CCC[C@H]2C(=O)N[C@H](C(=O)N2CCCCC2)CC(=O)N[C@@H](C)C(=O)NCC(=O)N(C)[C@@H](CC(C)C)C(=O)N1C [DP-16] (AG[NMeL][NMeI][NMeA][NMeF]T[NMeF][NMeL]PD-Piperidide; lactam N-11) | 30 |  |  | 74 | 
CC[C@H](C)[C@@H]1NC(=O)[C@H](Cc2ccccc2)N(C)C(=O)[C@H](Cc2ccccc2)NC(=O)[C@H](CC(C)C)N(C)C(=O)[C@H](CC(C)C)NC(=O)[C@H](C)NC(=O)C[C@@H](C(=O)N2CCCCC2)NC(=O)[C@H](CC(C)C)NC(=O)[C@H]([C@@H](C)O)NC(=O)[C@@H]2CCCN2C1=O [DP-17] (AL[NMeL]F[NMeF]IPTLD-Piperidide; lactam N-10) | 38 | 94 |  |  | 
CC[C@H](C)[C@H]1C(=O)N(C)[C@@H](C)C(=O)N[C@@H](Cc2ccccc2)C(=O)N[C@@H]([C@@H](C)O)C(=O)N[C@@H](CC(C)C)C(=O)N(C)[C@@H](Cc2ccccc2)C(=O)N(C)[C@@H](C(C)C)C(=O)N[C@H](C(=O)N2CCCCC2)CC(=O)N[C@@H](C)C(=O)N[C@@H](CC(C)C)C(=O)N1C [DP-18] (AL[NMeI][NMeA]FTL[NMeF][NMeV]D-Piperidide; lactam N-10) | 30 | 202 |  |  | 
CC[C@H](C)[C@H]1C(=O)N[C@@H](Cc2ccccc2)C(=O)N[C@@H](Cc2ccccc2)C(=O)N2CCC[C@H]2C(=O)N[C@@H]([C@@H](C)O)C(=O)N(C)[C@@H](CC(C)C)C(=O)N[C@H](C(=O)N2CCCCC2)CC(=O)N[C@@H](C)C(=O)N[C@@H](C)C(=O)N(C)[C@@H](CC(C)C)C(=O)N[C@@H](CC(C)C)C(=O)N1C [DP-29] (AA[NMeL]L[NMeI]FFPT[NMeL]D-Piperidide; lactam N-11) | 31 | 158 |  |  | 
CC[C@H](C)[C@H]1C(=O)N[C@@H](CC(C)C)C(=O)N(C)CC(=O)N[C@@H]([C@@H](C)O)C(=O)N[C@@H](Cc2ccccc2)C(=O)N[C@@H](C)C(=O)N(C)[C@@H](CC(C)C)C(=O)N[C@@H](Cc2ccccc2)C(=O)N[C@@H](C(C)C)C(=O)N[C@H](C(=O)N2CCCCC2)CC(=O)N[C@@H](C)C(=O)N[C@@H](CC(C)C)C(=O)N1C [DP-35] (AL[NMeI]L[Sar]TFA[NMeL]FVD-Piperidide; lactam N-12) | 12 | 32 |  |  | 
CC[C@H](C)[C@H]1C(=O)N[C@H](C(=O)N2CCCCC2)CC(=O)N[C@@H](C)C(=O)N(C)[C@@H](Cc2ccccc2)C(=O)N(C)[C@@H](CC(C)C)C(=O)N[C@@H]([C@@H](C)O)C(=O)N(C)CC(=O)N(C)[C@@H](CC(C)C)C(=O)N[C@@H](COC(C)(C)C)C(=O)N1C [DP-37] (A[NMeF][NMeL]T[Sar][NMeL]S(tBu)[NMeI]D-Piperidide; lactam N-9) | 31 | 156 |  |  | 
CC(C)C[C@H]1C(=O)N[C@@H](COC(C)(C)C)C(=O)N[C@H](C(=O)N2CCCCC2)CC(=O)N[C@@H](C)C(=O)N(C)[C@@H](C)C(=O)N(C)[C@@H](Cc2ccccc2)C(=O)N(C)[C@@H](CC(C)C)C(=O)N[C@@H]([C@@H](C)O)C(=O)N(C)CC(=O)N1C [DP-38] (A[NMeA][NMeF][NMeL]T[Sar][NMeL]S(tBu)D-Piperidide; lactam N-9) | 16 | 55 |  |  | 
CC(C)C[C@H]1C(=O)N[C@@H](COC(C)(C)C)C(=O)N[C@H](C(=O)N2CCCCC2)CC(=O)N(C)[C@@H](C)C(=O)N(C)[C@@H](C)C(=O)N(C)[C@@H](Cc2ccccc2)C(=O)N(C)[C@@H](CC(C)C)C(=O)N[C@@H]([C@@H](C)O)C(=O)N(C)CC(=O)N1C [DP-39] ([NMeA][NMeA][NMeF][NMeL]T[Sar][NMeL]S(tBu)D-Piperidide; lactam N-9) | 16 |  |  |  | 67
CC[C@H](C)[C@H](NC(=O)[C@@H]1CC(=O)N[C@@H](C)C(=O)N[C@@H](CC(C)C)C(=O)N2CCC[C@H]2C(=O)N[C@@H](C)C(=O)N[C@@H](CC(C)C)C(=O)N(C)CC(=O)N[C@@H]([C@@H](C)O)C(=O)N[C@@H](Cc2ccccc2)C(=O)N[C@@H](CC(C)C)C(=O)N(C)[C@@H](Cc2ccccc2)C(=O)N[C@@H](C(C)C)C(=O)N1)C(=O)N1CCCCC1 [DP-40] (ALPAL[Sar]TFL[NMeF]VDI-Piperidide; lactam N-12) | 5.8 | 38 |  |  | 
CC[C@H](C)[C@H](NC(=O)[C@H](CC(C)C)NC(=O)[C@@H]1CC(=O)N[C@@H](C)C(=O)N[C@@H](CC(C)C)C(=O)N[C@@H](Cc2ccccc2)C(=O)N[C@@H](CC(C)C)C(=O)N[C@@H]([C@@H](C)O)C(=O)N2CCC[C@H]2C(=O)N(C)CC(=O)N[C@@H](Cc2ccccc2)C(=O)N[C@@H](C(C)C)C(=O)N(C)[C@@H](C)C(=O)N1)C(=O)N1CCCCC1 [DP-41] (ALFLTP[Sar]FV[NMeA]DLI-Piperidide; lactam N-11) | 11 | 72 |  |  | 
CC[C@H](C)[C@H](NC(=O)[C@@H]1CC(=O)N[C@@H](C)C(=O)N[C@@H]([C@@H](C)O)C(=O)N[C@@H](CC(C)C)C(=O)N2CCC[C@H]2C(=O)N[C@@H](Cc2ccccc2)C(=O)N(C)[C@@H](Cc2ccccc2)C(=O)N(C)[C@@H](C(C)C)C(=O)N[C@@H](C)C(=O)N(C)[C@@H](CC(C)C)C(=O)N1)C(=O)N1CCCCC1 [DP-44] (ATLPF[NMeF][NMeV]A[NMeL]DI-Piperidide; lactam N-10) | 20 | 59 |  |  | 
CC[C@H](C)[C@H]1C(=O)N[C@@H](C)C(=O)N(C)[C@@H](Cc2ccccc2)C(=O)N[C@@H]([C@@H](C)O)C(=O)N(C)CC(=O)N(C)[C@@H](Cc2ccccc2)C(=O)N(C)[C@@H](CC(C)C)C(=O)N[C@H](C(=O)N2CCCCC2)CC(=O)N(C)CCC(=O)N[C@@H](CC(C)C)C(=O)N(C)[C@@H](CC(C)C)C(=O)N1C [DP-48] ([NMeβAla]L[NMeL][NMeI]A[NMeF]T[Sar][NMeF][NMeL]D-Piperidide; lactam N-11) | 33 | 32 |  |  | 
CC[C@H](C)[C@H]1C(=O)N(C)[C@@H](CC(C)C)C(=O)N[C@H](C(=O)N2CCCCC2)CC(=O)N(C)[C@H](C)C(=O)N(C)[C@@H](CC(C)C)C(=O)N[C@@H](CC(C)C)C(=O)N(C)[C@@H](Cc2ccccc2)C(=O)N[C@@H](COC(C)(C)C)C(=O)N(C)[C@@H](Cc2ccccc2)C(=O)N[C@@H]([C@@H](C)O)C(=O)N(C)[C@@H](C)C(=O)N1C [DP-49] ([dNMeA][NMeL]L[NMeF]S(tBu)[NMeF]T[NMeA][NMeI][NMeL]D-Piperidide; lactam N-11) | 18 | 51 |  |  | 
CC(C)C[C@H]1C(=O)N(C)[C@@H](CC(C)C)C(=O)NC(C(C)O)C(=O)N(C)[C@@H](Cc2ccccc2)C(=O)NCC(=O)N(C)[C@@H](C(C)C)C(=O)N[C@@H](Cc2ccccc2)C(=O)NC(C(=O)N2CCCCC2)CC(=O)N(C)CCC(=O)N[C@@H](COC(C)(C)C)C(=O)N1C (stereo partly drawn) [DP-50] ([NMeβAla]S(tBu)[NMeL][NMeL][ξT][NMeF]G[NMeV]F[ξD]-Piperidide; lactam N-10) | 35 | 80 |  |  | 
CC[C@H](C)[C@@H]1NC(=O)[C@H](C)N(C)C(=O)[C@@H](C)N(C)C(=O)C[C@@H](C(=O)N2CCCCC2)NC(=O)[C@H](CC(C)C)N(C)C(=O)[C@H](C)N(C)C(=O)[C@H](Cc2ccccc2)N(C)C(=O)[C@H]([C@@H](C)O)NC(=O)[C@H](Cc2ccccc2)N(C)C(=O)[C@H](CC(C)C)N(C)C1=O [DP-51] ([dNMeA][NMeA]I[NMeL][NMeF]T[NMeF][NMeA][NMeL]D-Piperidide; lactam N-10) | 34 | 96 |  |  | 

— patent US9409952B2, “Peptide-compound cyclization method” (Chugai Seiyaku Kabushiki Kaisha, priority 2011, dated 2016)
